From US8912338B2, “Pesticidal compositions” (Dow AgroSciences LLC, priority 2010, dated 2014)

Legend:
[1] = system: Green Peach Aphid (Myzus persicae); test: Insecticidal test for green peach aphid in foliar spray assay; type: in vivo; conditions: 72 h, 200 ppm foliar spray on cabbage seedlings, live aphids counted after three days, Abbott's corrected % control, read-out: MYZUPE % Ctrl @ 200 ppm
Method: Certain molecules disclosed in this document were tested against MYZUPE using procedures described in the following example. In the reporting of the results, the “MYZUPE, APHIGO and BEMITA Rating Table” was used (See Table Section).
Cabbage seedlings grown in 3-inch pots, with 2-3 small (3-5 cm) true leaves, were used as test substrate. The seedlings were infested with 20-50 green peach aphids (wingless adult and nymph stage) one day prior to chemical application. Four pots with individual seedlings were used for each treatment. Compounds (2 mg) were dissolved in 2 mL of acetone/methanol (1:1) solvent, forming stock solutions of 1000 ppm. The stock solutions were diluted 5× with 0.025% Tween 20 in H2O to obtain the test solution at 200 ppm. A hand-held Devilbiss sprayer was used for spraying a solution to both sides of cabbage leaves until runoff. Reference plants (solvent check) were sprayed with the diluent only. Treated plants were held in a holding room for three days at approximately 25° C. and 40% relative humidity (RH) prior to grading. Evaluation was conducted by counting the number of live aphids per plant under a microscope. Insecticidal activity data presented in Table 3 were generated by using Abbott's correction formula: Corrected%Control=100*(X−Y)/X • where X=No. of live aphids on solvent check plants • Y=No. of live aphids on treated plants

[2] = system: Sweetpotato Whitefly (Bemisia tabaci); test: Insecticidal test for sweetpotato whitefly in foliar spray assay; type: in vivo; conditions: 200 ppm foliar spray on cotton plants infested with eggs, live nymphs counted after 8-9 days, Abbott's corrected % control, read-out: BEMITA % Ctrl @ 200 ppm
Method: Cotton plants were used as test substrate and were grown in 3-inch pots and pruned until only 1 small (3-5 cm) true leaf remained. The plants were then placed in a room with whitefly ([…]) adults and allowed to be infested with eggs. After a 2-3 day egg-laying period, plants were taken from the adult whitefly room and the adults were removed from the leaves using compressed air delivered through a hand-held Devilbiss sprayer (23 psi). Plants infested with eggs (100-300 eggs per plant) were placed in a controlled-environment room for 5-6 days at 82° F. and 50% RH until approximately 50% egg hatch. Four cotton plants (4 replicates) were used for each treatment. Compounds (2 mg) were dissolved in 1 mL of acetone solvent, forming stock solutions of 2000 ppm. The stock solutions were diluted 10× with 0.025% Tween 20 in H2O to obtain the test solution of 200 ppm. A hand-held Devilbiss sprayer was used for spraying a solution to both sides of cotton leaf until runoff. Reference plants (solvent check) were sprayed with the diluent only. Treated plants were held in a holding room for 8-9 days at approximately 82° F. and 50% RH prior to grading. Evaluation was conducted by counting the number of live nymphs per plant under a microscope. Insecticidal activity data presented in Table 3 were generated by using Abbott's correction formula: Corrected%Control=100*(X-Y)/X • where X=No. of live nymphs on solvent check plants • Y=No. of live nymphs on treated plants […]

[3] = system: Cotton Aphid (Aphis gossypii); test: Insecticidal test for cotton aphid in a foliar spray assay; type: in vivo; conditions: 72 h, 200 ppm foliar spray on squash or cotton seedlings, live aphids counted after three days, Abbott's corrected % control, read-out: APHIGO % Ctrl @ 200 ppm
Method: Squash or cotton seedlings with fully expanded cotyledon leaves were trimmed to one cotyledon per plant and infested with wingless adult and nymph stage cotton aphid (APHIGO) one day prior to chemical application. Each plant was examined before chemical application to ensure uniform infestation (ca. 30-70 aphids per plant). Compounds (2 mg) were dissolved in 2 mL of acetone/methanol (1:1) solvent, forming stock solutions of 1000 ppm. The stock solutions were diluted 5× with 0.025% Tween 20 in H2O to obtain a solution at 200 ppm. A hand-held Devilbiss aspirator type sprayer was used to apply the spray solutions until runoff to both sides of the squash cotyledon leaves. Four plants (4 replications) were used for each concentration of each compound. Reference plants (solvent check) were sprayed with the diluent only. Treated plants were held in a holding room for three days at approximately 25° C. and 40% RH before the number of live cotton aphids on each plant was recorded. Insecticidal activity data presented in Table 3 were generated by using Abbott's correction formula: Corrected%Control=100*(X−Y)/X • where X=No. of live aphids on solvent check plants • Y=No. of live aphids on treated plants

| melting point [°C] | SMILES | inhibition at 200 ppm [1] [%] | inhibition at 200 ppm [2] [%] | inhibition at 200 ppm [3] [%] |
| --- | --- | --- | --- | --- |
| 118 to 121 | COCCNC(=S)N(C)c1nnc(-c2cccnc2)s1 [Compound 95] | 80 to 100 | 0 to 80 | – |
| 109 to 111 | CSCC(C)(C#N)C(=O)N(C)c1nnc(-c2cncc(F)c2)s1 (stereo not shown) [Compound 88] | 80 to 100 | 0 to 80 | – |
| 170 to 172 | CN(C(=O)OCC[S+](C)[O-])c1nnc(-c2cccnc2)s1 (stereo not shown) [Compound 51] | 80 to 100 | 0 to 80 | 80 to 100 |
| 43 to 46 | C=CCSCC(C)C(=O)N(C)c1nnc(-c2cccnc2)s1 (stereo not shown) [Compound 94] | 80 to 100 | 80 to 100 | – |
| 104 to 106 | CSCCOC(=O)N(C)c1nnc(-c2cncc(F)c2)s1 [Compound 78, [5-(5-fluoropyridin-3-yl)-[1,3,4]thiadiazol-2-yl]-methylcarbamic acid 2-methylsulfanyl-ethyl ester] | 80 to 100 | 80 to 100 | – |
| 100 to 104 | CSCCNC(=O)N(C)c1nnc(-c2cncc(F)c2)s1 [Compound 79, 1-[5-(5-fluoro-pyridin-3-yl)-[1,3,4]thiadiazol-2-yl]-1-methyl-3-(2-methylsulfanyl-ethyl)-urea] | 80 to 100 | 0 to 80 | – |
| 90 to 93 | CSCC(C)(C)C(=O)OCC(C)(C)C(=O)N(C)c1nnc(-c2cncc(F)c2)s1 [Compound 91] | 80 to 100 | 80 to 100 | – |
| 150 to 152 | CSCCOC(=S)N(C)c1nnc(-c2cncc(F)c2)s1 [Compound 85, [5-(5-fluoro-pyridin-3-yl)-[1,3,4]thiadiazol-2-yl]-methyl-thiocarbamic acid 2-methylsulfanyl-ethyl ester] | 0 to 80 | 0 to 80 | – |
| 137 to 140 | CCOC(=S)N(C)c1nnc(-c2cncc(F)c2)s1 [Compound 80, [5-(5-fluoro-pyridin-3-yl)-[1,3,4]thiadiazol-2-yl]-methyl-thiocarbamic acid ethyl ester] | 80 to 100 | 0 to 80 | – |
| 145 to 147 | CN(C(=O)CSCc1ccccc1)c1nnc(-c2cncc(F)c2)s1 [Compound 84] | 0 to 80 | 0 to 80 | – |
| 154 to 157 | CSCC(C)(CN)C(=O)N(C)c1nnc(-c2cncc(F)c2)s1 (stereo not shown) [Compound 89, 2-(aminomethyl)-N-[5-(5-fluoro-3-pyridyl)-1,3,4-thiadiazol-2-yl]-N,2-dimethyl-3-methylsulfanyl-propanamide] | 0 to 80 | 0 to 80 | – |
| 176 | CSCC(C)C(=O)Nc1nnc(-c2cccnc2)s1 (stereo not shown) [Compound 92] | 0 to 80 | 0 to 80 | – |

Continued, molecule first:

| SMILES | melting point [°C] | inhibition at 200 ppm [1] [%] | inhibition at 200 ppm [2] [%] | inhibition at 200 ppm [3] [%] |
| --- | --- | --- | --- | --- |
| CC(C)SCCC(=O)N(C)c1nnc(-c2cccnc2)s1 [Compound 4] | 100 to 105 | 80 to 100 | 0 to 80 | 80 to 100 |
| CSCC(=O)N(C)c1nnc(-c2cccnc2)s1 [Compound 29] | 135 to 139 | 80 to 100 | 0 to 80 | 80 to 100 |
| CCS(=O)(=O)C(C)CC(=O)N(C)c1nnc(-c2cccnc2)s1 (stereo not shown) [Compound 43] | 175 to 177 | 0 to 80 | < 0 | 80 to 100 |
| COCCCC(=O)N(C)c1nnc(-c2cccnc2)s1 [Compound 19] | 92 to 95 | 0 to 80 | 0 to 80 | 80 to 100 |
| CO/N=C(\C)CCC(=O)N(C)c1nnc(-c2cccnc2)s1 [Compound 48, 4-[(E)-methoxyimino]-pentanoic acid methyl-(5-pyridin-3-yl-[1,3,4]thiadiazol-2-yl)-amide] | 114 to 121 | 80 to 100 | 0 to 80 | 80 to 100 |
| CCN(C(=O)CCSC)c1nnc(-c2cccnc2)s1 [Compound 9] | 116 to 120 | 80 to 100 | 0 to 80 | 80 to 100 |
| CSCCCC(=O)N(C)c1nnc(-c2cccnc2)s1 [Compound 6] | 93 to 95 | 80 to 100 | 0 to 80 | 80 to 100 |
| CN(C(=O)CCNC(=O)OC(C)(C)C)c1nnc(-c2cccnc2)s1 [Compound 38] | 41 to 48 | 80 to 100 | 0 to 80 | 80 to 100 |
| CN(C(=O)CCSCc1ccccc1)c1nnc(-c2cccnc2)s1 [Compound 11] | 116 to 118 | 0 to 80 | 0 to 80 | 0 to 80 |
| CN(C(=O)C1(C[S+](C)[O-])CC1)c1nnc(-c2cccnc2)s1 (stereo not shown) [Compound 45] | 166 to 168 | 80 to 100 | 0 to 80 | 80 to 100 |
| CCOC(=O)CCC(=O)N(C)c1nnc(-c2cccnc2)s1 [Compound 12] | 137 to 139 | 0 to 80 | 0 to 80 | 80 to 100 |
| CN(C(=O)CCS(C)(=O)=O)c1nnc(-c2cccnc2)s1 [Compound 20, N-methyl-3-(methylsulfonyl)-N-(5-(pyridin-3-yl)-1,3,4-thiadiazol-2-yl)propanamide] | 199 to 201 | 80 to 100 | 0 to 80 | 80 to 100 |
| CCSCCC(=O)N(C)c1nnc(-c2cccnc2)s1 [Compound 2] | 70 to 72 | 80 to 100 | 0 to 80 | 80 to 100 |
| CSCC1(C(=O)N(C)c2nnc(-c3cccnc3)s2)CC1 [Compound 44] | 144 to 147 | 80 to 100 | < 0 | 80 to 100 |
| CN(C(=O)CCSCCc1ccccc1)c1nnc(-c2cccnc2)s1 [Compound 5] | 105 to 108 | 0 to 80 | 0 to 80 | 0 to 80 |
| CCSC(C)CC(=O)N(C)c1nnc(-c2cccnc2)s1 (stereo not shown) [Compound 13] | – | 80 to 100 | 0 to 80 | 80 to 100 |
| CN(C(=O)C1(CS(C)(=O)=O)CC1)c1nnc(-c2cccnc2)s1 [Compound 46] | 208 to 212 | – | 0 to 80 | 80 to 100 |
| CSCC(C)C(=O)N(C)c1nnc(-c2cccnc2)s1 (stereo not shown) [Compound 28, N-2-Dimethyl-3-(methylthio)-N-(5-(pyridin-3-yl)-1,3,4-thiadiazol-2-yl)propanamide] | – | 80 to 100 | 0 to 80 | 80 to 100 |
| CCSCC(C)(C)C(=O)N(C)c1nnc(-c2cccnc2)s1 [Compound 17] | – | 80 to 100 | 0 to 80 | 80 to 100 |
